Experiments:
SW-620 = assay: Growth inhibition of human SW620 cells assessed as cell growth at 100 uM after 48 hrs by SRB assay relative to control; format: functional; conditions: SW-620, 48 h, read-out: Activity
SF-268 = assay: Growth inhibition of human SF268 cells assessed as cell growth at 0.1 uM after 48 hrs by SRB assay relative to control; format: functional; conditions: SF-268, 48 h, read-out: Activity
SF-539 = assay: Growth inhibition of human SF539 cells assessed as cell growth at 1 uM after 48 hrs by SRB assay relative to control; format: functional; conditions: SF-539, 48 h, read-out: Activity
RXF 393 [1] = assay: Growth inhibition of human RXF393 cells assessed as cell growth at 1 uM after 48 hrs by SRB assay relative to control; format: functional; conditions: RXF 393, 48 h, read-out: Activity
NCI-H522 = assay: Cytotoxicity against human NCI-H522 cells assessed as growth inhibition after 48 hrs by SRB assay; format: functional; conditions: NCI-H522, 48 h
HCT-15 = assay: Cytotoxicity against human HCT15 cells assessed as growth inhibition after 48 hrs by SRB assay; format: functional; conditions: HCT-15, 48 h
HCT-116 [2] = assay: Growth inhibition of human HCT116 cells assessed as cell growth at 0.1 uM after 48 hrs by SRB assay relative to control; format: functional; conditions: HCT-116, 48 h, read-out: Activity
MDA-MB-435 = assay: Growth inhibition of human MDA-MB-435 cells assessed as cell growth at 100 uM after 48 hrs by SRB assay relative to control; format: functional; conditions: MDA-MB-435, 48 h, read-out: Activity
Malme-3M [3] = assay: Growth inhibition of human MALME-3M cells assessed as cell growth at 0.01 uM after 48 hrs by SRB assay relative to control; format: functional; conditions: read-out: Activity
OVCAR-5 = assay: Growth inhibition of human OVCAR5 cells assessed as cell growth at 1 uM after 48 hrs by SRB assay relative to control; format: functional; conditions: OVCAR-5, 48 h, read-out: Activity
SK-MEL-2 = assay: Growth inhibition of human SK-MEL-2 cells assessed as cell growth at 0.1 uM after 48 hrs by SRB assay relative to control; format: functional; conditions: SK-MEL-2, 48 h, read-out: Activity
MDA-MB-468 = assay: Growth inhibition of human MDA-MB-468 cells assessed as cell growth at 1 uM after 48 hrs by SRB assay relative to control; format: functional; conditions: MDA-MB-468, 48 h, read-out: Activity
ACHN = assay: Growth inhibition of human ACHN cells assessed as cell growth at 1 uM after 48 hrs by SRB assay relative to control; format: functional; conditions: read-out: Activity
UO-31 = assay: Cytotoxicity against human UO31 cells assessed as growth inhibition after 48 hrs by SRB assay; format: functional; conditions: UO-31, 48 h
HCT-116 [4] = assay: Antiproliferative activity against human HCT116 cells assessed as reduction in cell viability by MTT assay; format: functional, cell-based
MDA-MB-231 = assay: Growth inhibition of human MDA-MB-231/ATCC cells assessed as cell growth at 1 uM after 48 hrs by SRB assay relative to control; format: functional; conditions: MDA-MB-231, 48 h, read-out: Activity
NCI-H322M = assay: Growth inhibition of human NCI-H322M cells assessed as cell growth at 0.01 uM after 48 hrs by SRB assay relative to control; format: functional; conditions: read-out: Activity
OVCAR-3 = assay: Cytotoxicity against human OVCAR3 cells assessed as growth inhibition after 48 hrs by SRB assay; format: functional; conditions: OVCAR-3, 48 h
HOP-62 = assay: Growth inhibition of human HOP62 cells assessed as cell growth at 1 uM after 48 hrs by SRB assay relative to control; format: functional; conditions: HOP-62, 48 h, read-out: Activity
SK-OV-3 = assay: Growth inhibition of human SKOV3 cells assessed as cell growth at 100 uM after 48 hrs by SRB assay relative to control; format: functional; conditions: SK-OV-3, 48 h, read-out: Activity
Malme-3M [5] = assay: Growth inhibition of human MALME-3M cells assessed as cell growth at 100 uM after 48 hrs by SRB assay relative to control; format: functional; conditions: read-out: Activity
COLO 205 = assay: Growth inhibition of human COLO205 cells assessed as cell growth at 10 uM after 48 hrs by SRB assay relative to control; format: functional; conditions: COLO 205, 48 h, read-out: Activity
CCRF-CEM = assay: Cytotoxicity against human CCRF-CEM cells assessed as growth inhibition after 48 hrs by SRB assay; format: functional
MCF7 = assay: Growth inhibition of human MCF7 cells assessed as cell growth at 0.1 uM after 48 hrs by SRB assay relative to control; format: functional; conditions: MCF7, 48 h, read-out: Activity
KM12 = assay: Growth inhibition of human KM12 cells assessed as cell growth at 10 uM after 48 hrs by SRB assay relative to control; format: functional; conditions: KM12, 48 h, read-out: Activity
RXF 393 [6] = assay: Cytotoxicity against human RXF393 cells assessed as growth inhibition after 48 hrs by SRB assay; format: functional; conditions: RXF 393, 48 h
CAKI-1 = assay: Growth inhibition of human Caki1 cells assessed as cell growth at 10 uM after 48 hrs by SRB assay relative to control; format: functional; conditions: CAKI-1, 48 h, read-out: Activity
BT-549 = assay: Growth inhibition of human BT549 cells assessed as cell growth at 10 uM after 48 hrs by SRB assay relative to control; format: functional; conditions: BT-549, 48 h, read-out: Activity
SNB-19 = assay: Growth inhibition of human SNB19 cells assessed as cell growth at 10 uM after 48 hrs by SRB assay relative to control; format: functional; conditions: SNB-19, 48 h, read-out: Activity
Hs-578T = assay: Growth inhibition of human Hs 578T cells assessed as cell growth at 0.01 uM after 48 hrs by SRB assay relative to control; format: functional; conditions: read-out: Activity
[7] = read-out: LC50 (the source's name)
[8] = read-out: pLC50 (the source's name) (converted)

With `COc1ccc2c(c1)CCc1n[nH]c(-c3cc(OC)c(OC)c(OC)c3)c1-2` as the molecule, how does the growth at 100 µM (SW-620) read?
The growth at 100 µM was -75%.

What about the growth at 0.1 µM (SF-268) of the same molecule?
The growth at 0.1 µM was 30%.

What about the growth at 1 µM (SF-539) of the same molecule?
The growth at 1 µM was -12%.

And the growth at 1 µM (RXF 393 [1])?
The growth at 1 µM was 6%.

And the GI50 (NCI-H522; read-out: GI50)?
Its GI50 is less than 10 nM.

What about the CC50 (NCI-H522; [7]) of the same molecule?
Its CC50 is 46.9 µM.

And the TGI (NCI-H522; read-out: TGI)?
The TGI was less than 10 nM.

And the GI50 (NCI-H522; read-out: pGI50 (converted))?
Its GI50 is less than 10 nM.

And the CC50 (NCI-H522; [8])?
The CC50 was 46.8 µM.

What about the TGI (NCI-H522; read-out: pTGI) of the same molecule?
The TGI was less than 10 nM.

What about the GI50 (HCT-15; read-out: GI50) of the same molecule?
The GI50 was less than 10 nM.

And the CC50 (HCT-15; [7])?
The CC50 was greater than 100 µM.

And the TGI (HCT-15; read-out: TGI)?
Its TGI is 11.8 µM.

What about the GI50 (HCT-15; read-out: pGI50 (converted)) of the same molecule?
Its GI50 is less than 10 nM.

What about the CC50 (HCT-15; [8]) of the same molecule?
The CC50 was greater than 100 µM.

What about the TGI (HCT-15; read-out: pTGI (converted)) of the same molecule?
Its TGI is 11.7 µM.

What about the growth at 0.1 µM (HCT-116 [2]) of the same molecule?
Its growth at 0.1 µM is 3%.

And the growth at 100 µM (MDA-MB-435)?
The growth at 100 µM was -64%.

And the growth at 0.01 µM (Malme-3M [3])?
The growth at 0.01 µM was 46%.

And the growth at 1 µM (OVCAR-5)?
The growth at 1 µM was 43%.

And the growth at 0.1 µM (SK-MEL-2)?
The growth at 0.1 µM was 40%.

And the growth at 1 µM (MDA-MB-468)?
Its growth at 1 µM is -1%.

And the growth at 1 µM (ACHN)?
The growth at 1 µM was 25%.

What about the GI50 (UO-31; read-out: GI50) of the same molecule?
Its GI50 is less than 10 nM.

What about the CC50 (UO-31; [7]) of the same molecule?
Its CC50 is greater than 100 µM.

And the TGI (UO-31; read-out: TGI)?
The TGI was 17.3 µM.

And the GI50 (UO-31; read-out: pGI50 (converted))?
The GI50 was less than 10 nM.

And the CC50 (UO-31; [8])?
Its CC50 is greater than 100 µM.

What about the TGI (UO-31; read-out: pTGI (converted)) of the same molecule?
The TGI was 17.4 µM.

What about the IC50 (HCT-116 [4]) of the same molecule?
The IC50 was 1 nM.

And the growth at 1 µM (MDA-MB-231)?
The growth at 1 µM was 29%.

What about the growth at 0.01 µM (NCI-H322M) of the same molecule?
Its growth at 0.01 µM is 47%.

And the GI50 (OVCAR-3; read-out: GI50)?
The GI50 was less than 10 nM.

What about the LC50 (50% lethal concentration) (OVCAR-3; read-out: LC50) of the same molecule?
The LC50 (50% lethal concentration) was 75.5 µM.

What about the TGI (OVCAR-3; read-out: TGI) of the same molecule?
The TGI was 14.7 µM.

What about the GI50 (OVCAR-3; read-out: pGI50 (converted)) of the same molecule?
The GI50 was less than 10 nM.

What about the LC50 (50% lethal concentration) (OVCAR-3; read-out: pLC50 (converted)) of the same molecule?
The LC50 (50% lethal concentration) was 75.9 µM.

What about the TGI (OVCAR-3; read-out: pTGI (converted)) of the same molecule?
Its TGI is 14.8 µM.

What about the growth at 1 µM (HOP-62) of the same molecule?
Its growth at 1 µM is 6%.

And the growth at 100 µM (SK-OV-3)?
The growth at 100 µM was -50%.

What about the growth at 100 µM (Malme-3M [5]) of the same molecule?
The growth at 100 µM was -36%.

And the growth at 10 µM (COLO 205)?
Its growth at 10 µM is -61%.

What about the GI50 (CCRF-CEM; read-out: GI50) of the same molecule?
The GI50 was less than 10 nM.

And the CC50 (CCRF-CEM; [7])?
The CC50 was greater than 100 µM.

What about the TGI (CCRF-CEM; read-out: TGI) of the same molecule?
The TGI was greater than 100 µM.

What about the GI50 (CCRF-CEM; read-out: pGI50 (converted)) of the same molecule?
The GI50 was less than 10 nM.

And the CC50 (CCRF-CEM; [8])?
Its CC50 is greater than 100 µM.

What about the TGI (CCRF-CEM; read-out: pTGI) of the same molecule?
Its TGI is greater than 100 µM.

And the growth at 0.1 µM (MCF7)?
Its growth at 0.1 µM is 14%.

What about the growth at 10 µM (KM12) of the same molecule?
The growth at 10 µM was 6%.

And the GI50 (RXF 393 [6]; read-out: GI50)?
Its GI50 is less than 10 nM.

And the CC50 (RXF 393 [6]; [7])?
Its CC50 is 51.3 µM.

What about the GI50 (RXF 393 [6]; read-out: pGI50 (converted)) of the same molecule?
The GI50 was less than 10 nM.

What about the CC50 (RXF 393 [6]; [8]) of the same molecule?
The CC50 was 51.3 µM.

What about the growth at 10 µM (CAKI-1) of the same molecule?
The growth at 10 µM was 13%.

What about the growth at 10 µM (BT-549) of the same molecule?
Its growth at 10 µM is 1%.

What about the growth at 10 µM (SNB-19) of the same molecule?
The growth at 10 µM was 24%.

What about the growth at 0.01 µM (Hs-578T) of the same molecule?
Its growth at 0.01 µM is 14%.
